Experimental data from PMC6560442, “Biochemical Properties of Polyphenol Oxidases from Ready-to-Eat Lentil (Lens culinaris Medik.) Sprouts and Factors Affecting Their Activities: A Search for Potent Tools Limiting Enzymatic Browning” (Foods, 2019).

Legend:
PPO I = system: T1, PPO I; assay: quinone formation, absorbance at […] nm, Lineweaver-Burk; format: biochemical, Lens culinaris; settings: TRIS-HCl 50 mM pH 6.5 (standard assay); 1-30 mM substrate; partially purified enzyme
T1 construct: first isoenzyme

PPO II = system: T2, PPO II; assay: as above; format: biochemical, Lens culinaris; settings: TRIS-HCl 50 mM pH 6.5 (standard assay); 1-30 mM substrate; partially purified enzyme
T2 construct: second isoenzyme

Row | Compound | Km (PPO I) [µM] | Km (PPO II) [µM]
1 | O=C(O)/C=C/c1ccc(O)c(O)c1 [Caffeic acid] | 3810 ± 170 | –
2 | Cc1ccc(O)c(O)c1 [4-methylcatechol] | 3000 ± 140 | 3400 ± 150
3 | O=C(O)c1cc(O)c(O)c(O)c1 [Gallic acid] | 2250 ± 100 | 5000 ± 230
4 | Oc1ccccc1O [Catechol] | 1760 ± 80 | 940 ± 40
